# Source: patent publication US20240246964A1 (Arbutus Biopharma Corporation, priority 2021, published 2024)
# Target: human PD-L1 (Homo sapiens (Human), UniProt Q9NZQ7)
# Experiment: T cell activation luciferase reporter cell culture system (T Cell Activation Assay)
# Type: cell-based
# Conditions: luciferase reporter assay; PD-L1 aAPC/CHO-K1 cells with PD-1 effector Jurkat T cells
# Sequence of human PD-L1 (Q9NZQ7 19-290): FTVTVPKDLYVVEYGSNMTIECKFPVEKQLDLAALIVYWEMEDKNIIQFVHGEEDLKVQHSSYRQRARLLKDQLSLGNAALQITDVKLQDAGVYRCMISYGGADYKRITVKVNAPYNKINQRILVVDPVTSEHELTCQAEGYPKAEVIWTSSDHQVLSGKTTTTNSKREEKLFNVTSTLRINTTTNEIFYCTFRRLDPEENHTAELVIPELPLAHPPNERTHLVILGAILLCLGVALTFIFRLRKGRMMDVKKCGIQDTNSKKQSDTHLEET
row,EC50 [nM],Structure (SMILES)
1,28.9,"COc1cc(-c2nccc(-c3cccc(-c4ccc(CNC5CCOCC5)c(OC)n4)c3Cl)c2Cl)cc(F)c1CNC1CCOCC1 [Example 348, N-((6-(2-Chloro-3-(3-chloro-2-(3-fluoro-5-methoxy-4-(((tetrahydro-2H-pyran-4-yl)amino)methyl)phenyl)pyridin-4-yl)phenyl)-2-methoxypyridin-3-yl)methyl)tetrahydro-2H-pyran-4-amine]"
2,38.3,"COc1cc(-c2nccc(-c3cccc(-c4ccc(CNC5CCS(=O)(=O)CC5)c(OC)n4)c3Cl)c2Cl)cc(F)c1CNC1CCS(=O)(=O)CC1 [Example 349, 4-(((6-(2-Chloro-3-(3-chloro-2-(4-(((1,1-dioxidotetrahydro-2H-thiopyran-4-yl)amino)methyl)-3-fluoro-5-methoxyphenyl)pyridin-4-yl)phenyl)-2-methoxypyridin-3-yl)methyl)amino)tetrahydro-2H-thiopyran 1,1-dioxide]"
3,89.2,"COc1nc(-c2cccc(-c3ccnc(-c4cc(OC)c5nc(CN6CC(C(=O)O)C6)cn5c4)c3Cl)c2Cl)ccc1CNC[C@@H]1CCC(=O)N1 [Example 350, (S)-1-((6-(3-Chloro-4-(2-chloro-3-(6-methoxy-5-((((5-oxopyrrolidin-2-yl)methyl)amino)methyl)pyridin-2-yl)phenyl)pyridin-2-yl)-8-methoxyimidazo[1,2-a]pyridin-2-yl)methyl)azetidine-3-carboxylic acid]"
4,146,"COc1nc(-c2cccc(-c3ccnc(-c4cc(OC)c5nc(CNCCC6(C(=O)O)CC6)cn5c4)c3Cl)c2Cl)ccc1CNC[C@@H]1CCC(=O)N1 [Example 351, (S)-1-(2-(((6-(3-Chloro-4-(2-chloro-3-(6-methoxy-5-((((5-oxopyrrolidin-2-yl)methyl)amino)methyl)pyridin-2-yl)phenyl)pyridin-2-yl)-8-methoxyimidazo[1,2-a]pyridin-2-yl)methyl)amino)ethyl)cyclopropane-1-carboxylic acid]"
5,134,"COc1cc(-c2nccc(-c3cccc(-c4ccc(CNC5CCN(C(=O)C6CCC6)CC5)c(OC)n4)c3Cl)c2Cl)ccc1CNC1CCN(C(=O)C2CCC2)CC1 [Example 352, (4-(((6-(2-Chloro-3-(3-chloro-2-(4-(((1-(cyclobutanecarbonyl)piperidin-4-yl)amino)methyl)-3-methoxyphenyl)pyridin-4-yl)phenyl)-2-methoxypyridin-3-yl)methyl)amino)piperidin-1-yl)(cyclobutyl)methanone]"
6,26.3,"COc1cc(-c2nccc(-c3cccc(-c4ccc(CNC[C@H]5CCC(=O)N5)c(OC)n4)c3Cl)c2Cl)ccc1CNC[C@H]1CCC(=O)N1 [Example 354, (R)-5-((((6-(2-Chloro-3-(3-chloro-2-(3-methoxy-4-(((((R)-5-oxopyrrolidin-2-yl)methyl)amino)methyl)phenyl)pyridin-4-yl)phenyl)-2-methoxypyridin-3-yl)methyl)amino)methyl)pyrrolidin-2-one]"
7,25.5,"COc1cc(-c2nccc(-c3cccc(-c4ccc(CN5CCC(NC(C)=O)CC5)c(OC)n4)c3Cl)c2Cl)ccc1CNC[C@H]1CCC(=O)N1 [Example 356, (R)—N-(1-((6-(2-Chloro-3-(3-chloro-2-(3-methoxy-4-((((5-oxopyrrolidin-2-yl)methyl)amino)methyl)phenyl)pyridin-4-yl)phenyl)-2-methoxypyridin-3-yl)methyl)piperidin-4-yl)acetamide]"
8,9.1,"COc1cc(-c2nccc(-c3cccc(-c4ccc(CN5CCC(NC(C)=O)CC5)c(OC)n4)c3Cl)c2Cl)ccc1CNC[C@@H]1CCC(=O)N1 [Example 357, (S)—N-(1-((6-(2-Chloro-3-(3-chloro-2-(3-methoxy-4-((((5-oxopyrrolidin-2-yl)methyl)amino)methyl)phenyl)pyridin-4-yl)phenyl)-2-methoxypyridin-3-yl)methyl)piperidin-4-yl)acetamide]"
9,40.4,"COc1cc(-c2nccc(-c3cccc(-c4ccc(CNC5CC(=O)NC(=O)C5)c(OC)n4)c3Cl)c2Cl)ccc1CNC1CC(=O)NC(=O)C1 [Example 359, 4-(((6-(2-Chloro-3-(3-chloro-2-(4-(((2,6-dioxopiperidin-4-yl)amino)methyl)-3-methoxyphenyl)pyridin-4-yl)phenyl)-2-methoxypyridin-3-yl)methyl)amino)piperidine-2,6-dione]"
10,31,"COc1cc(-c2nccc(-c3cccc(-c4ccc(CNC5CCN(C(C)=O)CC5)c(OC)n4)c3Cl)c2Cl)ccc1CN[C@H]1CC[C@H](O)CC1 [Example 360, 1-(4-(((6-(2-Chloro-3-(3-chloro-2-(4-((((1r,4r)-4-hydroxycyclohexyl)amino)methyl)-3-methoxyphenyl)pyridin-4-yl)phenyl)-2-methoxypyridin-3-yl)methyl)amino)piperidin-1-yl)ethan-1-one]"
11,40.5,"COc1cc(-c2nccc(-c3cccc(-c4ccc(CNC5CCN(C(C)=O)CC5)c(OC)n4)c3Cl)c2Cl)ccc1CN1CC2(CC(O)C2)C1 [Example 361, 1-(4-(((6-(2-Chloro-3-(3-chloro-2-(4-((6-hydroxy-2-azaspiro[3.3]heptan-2-yl)methyl)-3-methoxyphenyl)pyridin-4-yl)phenyl)-2-methoxypyridin-3-yl)methyl)amino)piperidin-1-yl)ethan-1-one]"
12,261,"CNCc1ccc(-c2nccc(-c3cccc(-c4ccc(CNC)c(OC)n4)c3C)c2C)cc1OC [Example 362, 1-(2-Methoxy-4-(4-(3-(6-methoxy-5-((methylamino)methyl)pyridin-2-yl)-2-methylphenyl)-3-methylpyridin-2-yl)phenyl)-N-methylmethanamine]"
13,400,"COc1cc(-c2nccc(-c3cccc(-c4ccc(CNC5CCN(C(C)=O)CC5)c(OC)n4)c3C)c2C)ccc1CNC1CCN(C(C)=O)CC1 [Example 363, 1-(4-(((6-(3-(2-(4-(((1-Acetylpiperidin-4-yl)amino)methyl)-3-methoxyphenyl)-3-methylpyridin-4-yl)-2-methylphenyl)-2-methoxypyridin-3-yl)methyl)amino)piperidin-1-yl)ethan-1-one]"

# Continued, compound first:
row,Structure (SMILES),EC50 [nM]
1,"COc1cc(-c2nccc(-c3cccc(-c4ccc(CNC[C@H](C)O)c(OC)n4)c3Cl)c2C)ccc1CNC[C@H](C)O [Example 274, (S)-1-(((6-(2-Chloro-3-(2-(4-((((S)-2-hydroxypropyl)amino)methyl)-3-methoxyphenyl)-3-methylpyridin-4-yl)-phenyl)-2-methoxypyridin-3-yl)-methyl)-amino)propan-2-ol]",114
2,"COc1cc(-c2nccc(-c3cccc(-c4ccc(CN5CC6(CNC(=O)C6)C5)c(OC)n4)c3Cl)c2F)ccc1CN1CC2(CNC(=O)C2)C1 [Example 324, 2-(4-(4-(2-chloro-3-(6-methoxy-5-((7-oxo-2,6-diazaspiro[3.4]octan-2-yl)methyl)pyridin-2-yl)phenyl)-3-fluoropyridin-2-yl)-2-methoxybenzyl)-2,6-diazaspiro[3.4]octan-7-one]",31.4
3,"COc1cc(-c2nccc(-c3cccc(-c4ccc(CNCC5CCOCC5)c(OC)n4)c3Cl)c2Cl)ccc1CNCC1CCOCC1 [Example 330, 1-(6-(2-Chloro-3-(3-chloro-2-(3-methoxy-4-((((tetrahydro-2H-pyran-4-yl)methyl)amino)methyl)phenyl)pyridin-4-yl)phenyl)-2-methoxypyridin-3-yl)-N-((tetrahydro-2H-pyran-4-yl)methyl)methanamine]",73.8
4,"CNCc1ccc(-c2nccc(-c3cccc(-c4ccc(CNC)c(OC)n4)c3Cl)c2C)cc1OC [Example 334, 1-(6-(2-Chloro-3-(2-(3-methoxy-4-((methylamino)methyl)phenyl)-3-methylpyridin-4-yl)phenyl)-2-methoxypyridin-3-yl)-N-methylmethanamine]",38.5
5,"COc1cc(-c2nccc(-c3cccc(-c4ccc(CNC[C@@H]5CCC(=O)N5)c(OC)n4)c3Cl)c2Cl)ccc1[C@H](C)N [Example 335, (S)-5-((((6-(3-(2-(4-((S)-1-Aminoethyl)-3-methoxyphenyl)-3-chloropyridin-4-yl)-2-chlorophenyl)-2-methoxypyridin-3-yl)methyl)amino)methyl)pyrrolidin-2-one]",49.8
6,"COc1nc(-c2ccnc(-c3cccc4c3CC[C@@H]4Oc3nc(OC)c(CN4CC5(CNC(=O)C5)C4)cc3C(F)(F)F)c2Cl)ccc1CN1CC2(CNC(=O)C2)C1 [Example 336, (S)-2-((3′-Chloro-6-methoxy-2′-(1-((6-methoxy-5-((7-oxo-2,6-diazaspiro[3.4]octan-2-yl)methyl)-3-(trifluoromethyl)pyridin-2-yl)oxy)-2,3-dihydro-1H-inden-4-yl)-[2,4′-bipyridin]-5-yl)methyl)-2,6-diazaspiro[3.4]octan-7-one]",95.6
7,"COc1cc(-c2nccc(-c3cccc(-c4ccc(CNC5CCN(C(=O)C6CC6)CC5)c(OC)n4)c3Cl)c2Cl)ccc1CNC1CCN(C(=O)C2CC2)CC1 [Example 345, (4-(((6-(2-Chloro-3-(3-chloro-2-(4-(((1-(cyclopropanecarbonyl)piperidin-4-yl)amino)methyl)-3-methoxyphenyl)pyridin-4-yl)phenyl)-2-methoxypyridin-3-yl)methyl)amino)piperidin-1-yl)(cyclopropyl)methanone]",32.3
8,"COc1cc(-c2nccc(-c3cccc(-c4ccc(CNC5CCN(C(=O)C(C)C)CC5)c(OC)n4)c3Cl)c2Cl)ccc1CNC1CCN(C(=O)C(C)C)CC1 [Example 346, 1-(4-(((6-(2-Chloro-3-(3-chloro-2-(4-(((1-isobutyrylpiperidin-4-yl)amino)methyl)-3-methoxyphenyl)pyridin-4-yl)phenyl)-2-methoxypyridin-3-yl)methyl)amino)piperidin-1-yl)-2-methylpropan-1-one]",70.5
9,"COc1cc(-c2nccc(-c3cccc(-c4ccc(CNC5CCN(C(=O)C(C)C)CC5)c(OC)n4)c3Cl)c2Cl)cc(F)c1CNC1CCN(C(=O)C(C)C)CC1 [Example 347, 1-(4-(((6-(2-Chloro-3-(3-chloro-2-(3-fluoro-4-(((1-isobutyrylpiperidin-4-yl)amino)methyl)-5-methoxyphenyl)pyridin-4-yl)phenyl)-2-methoxypyridin-3-yl)methyl)amino)piperidin-1-yl)-2-methylpropan-1-one]",69.6
